Our source for the IC50 values is US20120328569A1, “INHIBITORS OF HEPATITIS C VIRUS NS5B POLYMERASE” (priority 2010, published 2012).

For the assay, the system named is HCV genotype 1b replicon. As to the kind of experiment: HCV replicon assay, cell ELISA with antibody to replicon-encoded NS3/4A (genotype 1b replicon). The settings on record: 96 hours incubation, NS3/4A cell ELISA. It counts as cell-based, hepatitis C virus. In short, it runs like this:
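An ELISA on lysed cells, using an antibody against NS3/4A protease, served as the proxy for replicon RNA. Cells had first been exposed for 96 h to serially diluted compound in G418-free conditions. Percent of DMSO control was fitted with a four-parameter function to give IC50.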

The mark [1] stands for this setting: Hepatitis C virus, 96 h, read-out: 1b IC50(nM), HCV genotype 1b replicon.

Structures are written as SMILES. Where two headings read alike, the source gives them in different places.

As for `CNC(=O)c1c(-c2ccc(F)cc2)oc2cc(N(Cc3cccnc3)S(C)(=O)=O)c(-c3ccc(OC)c(-c4nc5c(F)cc(F)cc5o4)c3)cc12` [Example 709], the IC50 – broadly, the concentration needed to halve the response being measured – under setting [1] was 6.05 nM.

Consider `CNC(=O)c1c(-c2ccc(F)cc2)oc2cc(N(CC3CCS(=O)(=O)C3)S(C)(=O)=O)c(-c3ccc(OC)c(-c4nc5c(F)cccc5o4)c3)cc12` (stereo not shown) [Example 717], for which, under setting [1], the IC50 was 2.84 nM.

Turning to `CNC(=O)c1c(-c2ccc(F)cc2)oc2cc(N(CC3CCS(=O)(=O)C3)S(C)(=O)=O)c(-c3ccc(OC)c(-c4nc5c(F)cc(F)cc5o4)c3)cc12` (stereo not shown) [Example 718], the IC50 under setting [1] is 3.9 nM.

For the compound `CNC(=O)c1c(-c2ccc(F)cc2)oc2cc(N(CC3CCS(=O)(=O)C3)S(C)(=O)=O)c(-c3cccc(-c4nc5ncccc5o4)c3)cc12` (stereo not shown) [Example 719], under setting [1], the IC50 came to 3.14 nM.

Consider `CNC(=O)c1c(-c2ccc(F)cc2)oc2cc(N(C3COC3)S(C)(=O)=O)c(-c3ccc(OC)c(-c4nc5c(F)cccc5o4)c3)cc12` [Example 720], for which, under setting [1], the IC50 came out at 41.6 nM.

On to `CNC(=O)c1c(-c2ccc(F)cc2)oc2cc(N(C3COC3)S(C)(=O)=O)c(-c3ccc(OC)c(-c4nc5c(F)cc(F)cc5o4)c3)cc12` [Example 721], for which the IC50 under setting [1] was determined as 4.94 nM.

With `CNC(=O)c1c(-c2ccc(F)cc2)oc2cc(N(C3COC3)S(C)(=O)=O)c(-c3ccc(OC)c(-c4nc5c(C#N)cccc5o4)c3)cc12` [Example 722], under setting [1], the IC50 was 3.03 nM.

With `CNC(=O)c1c(-c2ccc(F)cc2)oc2cc(N(CC3(C)COC3)S(C)(=O)=O)c(-c3cccc(-c4nc5ncccc5o4)c3)cc12` [Example 723], the IC50 under setting [1] was found to be 2.31 nM.

For `CNC(=O)c1c(-c2ccc(F)cc2)oc2cc(N(CC3(C)COC3)S(C)(=O)=O)c(-c3ccc(OC)c(-c4nc5c(F)cccc5o4)c3)cc12` [Example 724], the IC50 under setting [1] worked out at 4.47 nM.

Take `CNC(=O)c1c(-c2ccc(F)cc2)oc2cc(N(CC3(C)COC3)S(C)(=O)=O)c(-c3ccc(OC)c(-c4nc5c(F)cc(F)cc5o4)c3)cc12` [Example 725]: the IC50 under setting [1] was determined as 10.5 nM.

Take `CNC(=O)c1c(-c2ccc(F)cc2)oc2cc(N(C3CCOC3)S(C)(=O)=O)c(-c3ccc(OC)c(-c4nc5c(F)cccc5o4)c3)cc12` (stereo not shown) [Example 726]: the IC50 under setting [1] amounted to 5.54 nM.

On to `CNC(=O)c1c(-c2ccc(F)cc2)oc2cc(N(CC3CCOC3)S(C)(=O)=O)c(-c3ccc(OC)c(-c4nc5c(F)cc(F)cc5o4)c3)cc12` (stereo not shown) [Example 729], for which, under setting [1], the IC50 came to 3.3 nM.

`CNC(=O)c1c(-c2ccc(F)cc2)oc2cc(N(CCC(C)(C)C#N)S(C)(=O)=O)c(-c3ccc(OC)c(-c4nc5c(F)cccc5o4)c3)cc12` [Example 733]: the IC50 under setting [1] was 7.78 nM.

Turning to `CNC(=O)c1c(-c2ccc(F)cc2)oc2cc(N(CCC(C)(C)C#N)S(C)(=O)=O)c(-c3ccc(OC)c(-c4nc5c(F)cc(F)cc5o4)c3)cc12` [Example 735], the IC50 under setting [1] amounted to 10.5 nM.

On to `CNC(=O)c1c(-c2ccc(F)cc2)oc2cc(N(CC3(C#N)CC3)S(C)(=O)=O)c(-c3ccc(OC)c(-c4nc5c(F)cccc5o4)c3)cc12` [Example 737], for which, under setting [1], the IC50 came out at 19 nM.

On to `CNC(=O)c1c(-c2ccc(F)cc2)oc2cc(N(CC3(C#N)CC3)S(C)(=O)=O)c(-c3ccc(OC)c(-c4nc5c(F)cc(F)cc5o4)c3)cc12` [Example 738], for which the IC50 under setting [1] was determined as 7.62 nM.

For `CNC(=O)c1c(-c2ccc(F)cc2)oc2cc(N(C3CC(C#N)C3)S(C)(=O)=O)c(-c3cccc(-c4nc5ncccc5o4)c3)cc12` (stereo not shown) [Example 739], the IC50 under setting [1] turned out to be 2.17 nM.

Consider `CNC(=O)c1c(-c2ccc(F)cc2)oc2cc(N(C3CC(C#N)C3)S(C)(=O)=O)c(-c3ccc(OC)c(-c4nc5c(F)cccc5o4)c3)cc12` (stereo not shown) [Example 740], for which the IC50 under setting [1] was 4.76 nM.

As for `CNC(=O)c1c(-c2ccc(F)cc2)oc2cc(N(C3CC(C#N)C3)S(C)(=O)=O)c(-c3ccc(OC)c(-c4nc5c(C#N)cccc5o4)c3)cc12` (stereo not shown) [Example 741], the IC50 under setting [1] is 5.85 nM.

With `CNC(=O)c1c(-c2ccc(F)cc2)oc2cc(N(C3CC(C#N)C3)S(C)(=O)=O)c(-c3ccc(OC)c(-c4nc5c(F)cc(F)cc5o4)c3)cc12` (stereo not shown) [Example 742], under setting [1], the half-inhibitory concentration (IC50) is 4.57 nM.

As to `CNC(=O)c1c(-c2ccc(F)cc2)oc2cc(N(CC3CCOC(c4ccccc4)O3)S(C)(=O)=O)c(-c3ccc(OC)c(-c4nc5c(F)cccc5o4)c3)cc12` (stereo not shown) [Example 769], the 50% inhibitory concentration (IC50) under setting [1] is 80.7 nM.

On to `CNC(=O)c1c(-c2ccc(F)cc2)oc2cc(N(CCC3COC(C)(C)O3)S(C)(=O)=O)c(-c3ccc(OC)c(-c4nc5c(F)cccc5o4)c3)cc12` (stereo not shown) [Example 770], for which the IC50 under setting [1] amounted to 11.3 nM.

Regarding `CNC(=O)c1c(-c2ccc(F)cc2)oc2cc(N(CCC3COC(C)(C)O3)S(C)(=O)=O)c(-c3ccc(OC)c(-c4nc5c(F)cc(F)cc5o4)c3)cc12` (stereo not shown) [Example 771], the IC50 under setting [1] was determined as 13.3 nM.

Consider `CNC(=O)c1c(-c2ccc(F)cc2)oc2cc(N(CC(C)(C)O)S(C)(=O)=O)c(-c3ccc(OC)c(-c4nc5cccc(F)c5o4)c3)cc12` [Example 778], for which, under setting [1], the IC50 came to 24.8 nM.

On to `CNC(=O)c1c(-c2ccc(F)cc2)oc2cc(N(CC(C)(C)O)S(C)(=O)=O)c(-c3ccc(OC)c(-c4nc5c(F)cccc5o4)c3)cc12` [Example 779], for which the IC50 under setting [1] came to 8.28 nM.

`CNC(=O)c1c(-c2ccc(F)cc2)oc2cc(N(CC(C)(C)O)S(C)(=O)=O)c(-c3ccc(OC)c(-c4nc5cc(F)cc(F)c5o4)c3)cc12` [Example 780]: the half-maximal inhibitory concentration (IC50) under setting [1] was found to be 18.5 nM.

For `CNC(=O)c1c(-c2ccc(F)cc2)oc2cc(N(C(CO)CO)S(C)(=O)=O)c(-c3ccc(OC)c(-c4nc5c(F)cccc5o4)c3)cc12` [Example 782], the IC50 under setting [1] is 5.41 nM.

On to `CNC(=O)c1c(-c2ccc(F)cc2)oc2cc(N(CCC(O)CO)S(C)(=O)=O)c(-c3ccc(OC)c(-c4nc5c(F)cccc5o4)c3)cc12` (stereo not shown) [Example 784], for which the IC50 under setting [1] was determined as 3.61 nM.

For the compound `CNC(=O)c1c(-c2ccc(F)cc2)oc2cc(N(CCC(O)CO)S(C)(=O)=O)c(-c3ccc(OC)c(-c4nc5c(F)cc(F)cc5o4)c3)cc12` (stereo not shown) [Example 785], under setting [1], the IC50 was 3.55 nM.

On to `CNC(=O)c1c(-c2ccc(F)cc2)oc2cc(N(CC(C)(CO)CO)S(C)(=O)=O)c(-c3ccc(OC)c(-c4nc5c(F)cc(F)cc5o4)c3)cc12` [Example 788], for which the concentration for half-maximal inhibition (IC50) under setting [1] was found to be 79 nM.

Turning to `CNC(=O)c1c(-c2ccc(F)cc2)oc2cc(N(CC(C)(C)F)S(C)(=O)=O)c(-c3ccc(OC)c(-c4nc5c(F)cccc5o4)c3)cc12` [Example 789], under setting [1], the IC50 stood at 18.7 nM.

Take `CNC(=O)c1c(-c2ccc(F)cc2)oc2cc(N(CC(C)(C)F)S(C)(=O)=O)c(-c3ccc(OC)c(-c4nc5c(F)cc(F)cc5o4)c3)cc12` [Example 791]: the IC50 under setting [1] was 28.5 nM.

`CNC(=O)c1c(-c2ccc(F)cc2)oc2cc(N(CCC(C)(C)F)S(C)(=O)=O)c(-c3ccc(OC)c(-c4nc5c(F)cccc5o4)c3)cc12` [Example 796]: the IC50 under setting [1] was determined as 14 nM.

With `CNC(=O)c1c(-c2ccc(F)cc2)oc2cc(N(CCC(C)(C)F)S(C)(=O)=O)c(-c3cccc(-c4nc5ncccc5o4)c3)cc12` [Example 797], the IC50 under setting [1] came to 2.43 nM.

In the case of `CNC(=O)c1c(-c2ccc(F)cc2)oc2cc(N(C(CF)CF)S(C)(=O)=O)c(-c3ccc(OC)c(-c4nc5c(F)cccc5o4)c3)cc12` [Example 807], the IC50 under setting [1] was determined as 46.7 nM.

For the compound `CNC(=O)c1c(-c2ccc(F)cc2)oc2cc(N(CC(C)(CF)CF)S(C)(=O)=O)c(-c3ccc(OC)c(-c4nc5c(F)cc(F)cc5o4)c3)cc12` [Example 809], the IC50 under setting [1] came out at 213 nM.

In the case of `CNC(=O)c1c(-c2ccc(F)cc2)oc2cc(N(CC(F)CCF)S(C)(=O)=O)c(-c3ccc(OC)c(-c4nc5c(F)cccc5o4)c3)cc12` (stereo not shown) [Example 810], the IC50 under setting [1] is 13.4 nM.

As to `CNC(=O)c1c(-c2ccc(F)cc2)oc2cc(N(CC(C)(CO)CF)S(C)(=O)=O)c(-c3ccc(OC)c(-c4nc5c(F)cccc5o4)c3)cc12` (stereo not shown) [Example 813], under setting [1], the IC50 is 107 nM.

As to `CNC(=O)c1c(-c2ccc(F)cc2)oc2cc(N(C(CO)CF)S(C)(=O)=O)c(-c3ccc(OC)c(-c4nc5c(F)cccc5o4)c3)cc12` (stereo not shown) [Example 814], the IC50 under setting [1] came out at 9.83 nM.

For the compound `CNC(=O)c1c(-c2ccc(F)cc2)oc2cc(N(CC(O)CCF)S(C)(=O)=O)c(-c3ccc(OC)c(-c4nc5c(F)cccc5o4)c3)cc12` (stereo not shown) [Example 815], the IC50 under setting [1] was determined as 11.8 nM.

Take `CNC(=O)c1c(-c2ccc(F)cc2)oc2cc(N(CC(O)CC#N)S(C)(=O)=O)c(-c3ccc(OC)c(-c4nc5c(F)cc(F)cc5o4)c3)cc12` (stereo not shown) [Example 819]: under setting [1], the IC50 came to 8.3 nM.

As to `CNC(=O)c1c(-c2ccc(F)cc2)oc2cc(N(CC(O)CC#N)S(C)(=O)=O)c(-c3ccc(OC)c(-c4nc5ccccc5o4)c3)cc12` (stereo not shown) [Example 820], under setting [1], the IC50 came to 5.06 nM.

For `CNC(=O)c1c(-c2ccc(F)cc2)oc2cc(N(CCC(O)CC#N)S(C)(=O)=O)c(-c3ccc(OC)c(-c4nc5c(F)cccc5o4)c3)cc12` (stereo not shown) [Example 821], under setting [1], the IC50 is 3.27 nM.

Regarding `CNC(=O)c1c(-c2ccc(F)cc2)oc2cc(N(CC(O)Cn3ccnc3)S(C)(=O)=O)c(-c3ccc(OC)c(-c4nc5c(F)cccc5o4)c3)cc12` (stereo not shown) [Example 824], the IC50 (read-out: 1b IC50, HCV genotype 1b replicon) is 17.7 nM.

Take `CNC(=O)c1c(-c2ccc(F)cc2)oc2cc(N(CC(O)Cn3ccnc3)S(C)(=O)=O)c(-c3ccc(OC)c(-c4nc5c(F)cccc5o4)c3)cc12` (stereo not shown) [Example 825]: the IC50 under setting [1] is 8.88 nM.

As to `CNC(=O)c1c(-c2ccc(F)cc2)oc2cc(N(CC(O)Cn3ncc4ccccc43)S(C)(=O)=O)c(-c3ccc(OC)c(-c4nc5c(F)cccc5o4)c3)cc12` (stereo not shown) [Example 827], the IC50 under setting [1] is 11.8 nM.

Regarding `CNC(=O)c1c(-c2ccc(F)cc2)oc2cc(N(CC(C)N)S(C)(=O)=O)c(-c3cccc(-c4nc5ncccc5o4)c3)cc12` (stereo not shown) [Example 830], under setting [1], the IC50 was 8.47 nM.

For the compound `CNC(=O)c1c(-c2ccc(F)cc2)oc2cc(N(C3CN(C(=O)[C@@H](NC(=O)OC)C(C)C)C3)S(C)(=O)=O)c(-c3ccc(OC)c(-c4nc5c(F)cccc5o4)c3)cc12` [Example 834], under setting [1], the IC50 came to 11.5 nM.

As for `CNC(=O)c1c(-c2ccc(F)cc2)oc2cc(N(C[C@@H](C)NC(=O)[C@@H](NC(=O)OC)C(C)C)S(C)(=O)=O)c(-c3cccc(-c4nc5ncccc5o4)c3)cc12` [Example 836], the IC50 under setting [1] was found to be 82 nM.
